Source: patent US9315545B2, “Hepcidin mimetic peptides and uses thereof” (MERGANSER BIOTECH, INC., priority 2014, dated 2016)
In brackets after ≈: the same amount, converted by molar mass. Entries after “also recorded” stand apart in the source; their conditions may differ.

Columns and labels:
[1] = type: physicochemical; details: HCl (0.01%), 40° C.
[2] = Compound blood levels after subcutaneous administration in the rat (LC/MS); type: in vivo; details: 7.5 mg/kg
Method: (§1) Compounds 1-4 were tested in rats to determine compound pharmacokinetics and hepcidin mimetic activity in vivo as measured by serum iron reduction. The effectiveness of the compounds for serum iron reduction should correlate with the treatment of iron metabolism disorders. Individual compounds, in this example and the following examples were generally formulated in DSPE-PEG(2000) (SUNBRIGHT® DSPE-020CN, NOF America Corporation) (30 mg/mL) and dosed subcutaneously at a compound dose of 7.5 mg/kg.
(§2) The compound was prepared according to the following typical preparation. The dosing solution was prepared (7.5 mg compound/mL in clear solution) by weighing the compound into vial and an aliquot of ethanol is added into the vial and mixture vortexed. DSPE-020CN was added and the solution was vortexed, and, if necessary, the mixture was heated at 37° C. for 10-15 minutes to fully dissolve the DSPE-020CN. The ethanol was evaporated with nitrogen gas stream for 1-3 hours. Sterile water was then added and the mixture was vortexed or, if necessary, sonicated to give a clear solution.
After subcutaneous injection compound quantities in blood were measured over the subsequent 24 hours via LC/MS.

[3] = type: physicochemical
Method: An additional critical aspect in drug delivery is retention of solubility with time (physical stability), especially under refrigerated conditions. […] Unexpectedly, clear differences in physical stability were observed between Compound 5 and other compounds with only minor changes in sequence (e.g. Compounds 7 and 8). The combination of unexpected solubility of greater than 100 mg/mL in mildly acidic conditions and lack of significant changes in solution character after refrigeration, are unexpected and advantageous for a pharmaceutical product.

serum iron = assay: Serum iron reduction after subcutaneous administration in the rat (hepcidin mimetic activity); type: in vivo; details: 7.5 mg/kg
Method: as §1, §2
Serum iron was measured during the 24 h following subcutaneous administration in a rat of Compounds 1-4 and is summarized in FIG. 1. […] The observed effects on serum iron were unexpectedly similar in Compounds 1-3 despite the differences at Cysteine 7 and the differences in blood levels of the compounds (Table 7).

[4] = In vitro stability of compounds in rat plasma (37° C.); type: in vitro ADME
Method: The in vitro stability of Compounds 1-4 in rat plasma at 37° C. was examined to give an indication of stability in a whole animal model (Table 6).

[5] = type: physicochemical; remark: listed apart in the source
Method: Compound 5, which has the same disulphide block of the reactive cysteine as Compound 2 was also evaluated in stability studies over a 4 week period in 50 mM Na Acetate pH 5 at different temperatures.

physchem = type: physicochemical
Method: Different solvent compositions with different properties that are commonly used as a basis for pharmaceutical compositions were added to known quantities of the indicated compound and mixed. If a clear solution was not obtained, additional solvent was added and the solution mixed. […] For example “50-100” would indicate that the compound was not soluble at 100 mg/mL but upon additional solvent to have a final concentration of 50 mg/mL, the compound was soluble.

[6] = Stability of Compound 1 pH 6 formulations at 40° C. with antioxidants (HPLC % AUC); type: physicochemical
Method: Initially the stability of Compound 1 was previously characterized and there was significant degradation observed by HPLC after about 24 hours at 40° C. […] The effect of various antioxidants and thiol scavengers that might be used in a medicament were studied.

[7] = Stability in sodium acetate buffer pH 6 at two temperatures, reversed-phase HPLC; type: physicochemical
Method: Three other compounds were also tested, Compound 2, Compound 3, and Compound 4. Compounds 2, 3, and 4 are modifications of Compound 1 at the sidechain of Cysteine 7. Compound 2 has a disulfide bond attached to Cysteine 7, Compound 3 has thioester bond attached to Cysteine 7, and Compound 4 has an ethyl group attached to the sidechain sulfur of Cysteine 7. The peptides were incubated in sodium acetate buffer pH 6 at two temperature conditions and then analyzed via reversed-phase HPLC. The chromatography performed was with an Ascentis Phenyl 2.7 micron column (4.6×150 mm). The binary gradient (1 ml/min) was 36% to 56% B in 40 minutes followed by an increase to 65% B in 5 minutes where A=0.1% trifluoroacetic acid in water and B=0.1% trifluoroacetic acid in acetonitrile.

CCCCCCCCCCCCCCCCNC(=O)CN(CC(N)=O)C(=O)CCCCCNC(=O)C(Cc1c[nH]c2ccccc12)NC(=O)C(CCCNC(=N)N)NC(=O)C(CSSC)NC(=O)C(CCCNC(=N)N)NC(=O)C1CCCN(C(=O)C(NC(=O)C(Cc2c[nH]cn2)NC(=O)C(NC(=O)CNCC(=O)O)C(C)O)C(c2ccccc2)c2ccccc2)C1 (stereo not shown) [Compound 5]
% Purity, Day 0 ([1]; day 0): 97.1%
% Purity, Day 7 ([1]; day 7): 96.8%
blood levels of the dosed compound (in words) ([2]; in vivo, sc): surprisingly higher blood levels relative to the other compounds
physical stability under refrigerated conditions (in words) [3]: no changes in solution solubility or solution characteristics
duration of serum iron reduction compared with Compound 2 (serum iron): longer effect
reduction in serum iron (in words) (serum iron): retained significant hepcidin activity; also recorded: comparable activity
in vitro plasma stability, comparison in words [4]: even greater than that for Compound 2
% Purity, Week 0, 2-8° C. ([5]; 50 mM NaAcetate pH 5, week 0, 2-8° C.): 96.9%
% Purity, Week 0, 25° C. ([5]; 50 mM NaAcetate pH 5, week 0, 25° C.): 96.9%
% Purity, Week 1, 2-8° C. ([5]; 50 mM NaAcetate pH 5, week 1, 2-8° C.): 96.8%
% Purity, Week 1, 25° C. ([5]; 50 mM NaAcetate pH 5, week 1, 25° C.): 96.8%
% Purity, Week 2, 2-8° C. ([5]; 50 mM NaAcetate pH 5, week 2, 2-8° C.): 96.8%
% Purity, Week 2, 25° C. ([5]; 50 mM NaAcetate pH 5, week 2, 25° C.): 96.3%
% Purity, Week 4, 2-8° C. ([5]; 50 mM NaAcetate pH 5, week 4, 2-8° C.): 96.7%
% Purity, Week 4, 25° C. ([5]; 50 mM NaAcetate pH 5, week 4, 25° C.): 96.1%
solubility characteristics compared to the other compounds (in words) (physchem): unexpectedly superior solubility characteristics
solubility (physchem; Solubility (mg/mL) at Ambient Temperature, 30% PEG 400): 50 to 100 mg/mL (≈ 27.7 to 55.4 mM)
solubility (physchem; Solubility (mg/mL) at Ambient Temperature, 50% EtOH/water): > 100 mg/mL
solubility (physchem; Solubility (mg/mL) at Ambient Temperature, Water): > 100 mg/mL
solubility (physchem; pH 2.3, Solubility (mg/mL) at Ambient Temperature, 10% Tween 80 pH 2.3-2.8): > 200 mg/mL
solubility (physchem; pH 2.7, Solubility (mg/mL) at Ambient Temperature, 50% propylene glycol, pH 2.7): 50 to 100 mg/mL (≈ 27.7 to 55.4 mM)
change of solubility with pH (in words) (physchem; pH 4): no such significant change in solubility with pH
solubility (physchem; pH 4.5, Solubility (mg/mL) at Ambient Temperature, 10% Tween 80 pH 4.5-5.0): > 100 mg/mL
solubility (physchem; pH 5, Solubility (mg/mL) at Ambient Temperature, 2% Tween 80 pH 5): > 100 mg/mL
solubility (physchem; pH 5.5, Solubility (mg/mL) at Ambient Temperature, 10% Tween 80 pH 5.5-6.0): > 100 mg/mL
solubility (physchem; pH 6.4, Solubility (mg/mL) at Ambient Temperature, 2% Tween pH 6.4): > 44 mg/mL
solubility (physchem; solubility in mildly acidic conditions): > 100 mg/mL

CCCCCCCCCCCCCCCCNC(=O)CN(CC(N)=O)C(=O)CCCCCNC(=O)C(Cc1c[nH]c2ccccc12)NC(=O)C(CCCNC(=N)N)NC(=O)C(CS)NC(=O)C(CCCNC(=N)N)NC(=O)CC1CCCN1C(=O)C(NC(=O)C(Cc1c[nH]cn1)NC(=O)C(NC(=O)CNCC(=O)O)C(C)O)C(c1ccccc1)c1ccccc1 (stereo not shown) [Compound 1, reference compound]
AUC(0-t) ([2]; sc, subcutaneous, blood, dosed compound itself, read-out: AUC(0-24) (hr*ng/mL, mean ± SD)): 2750 ng·h/mL
blood levels of the dosed compound (in words) ([2]; subcutaneous): remains little changed out to at least 24 hours
main peak (% AUC) lost ([6]; after about 24 hours at 40° C., no antioxidant): 90%
Difference (%) (T24 − T0) ([6]; pH 6 formulation, antioxidant 10 mM or none, 40° C.): −90%
Main peak % AUC, T0 ([6]; pH 6 formulation, antioxidant 10 mM or none, 40° C., T0): 94.4 % AUC
Main peak % AUC, T ~24 hours ([6]; pH 6 formulation, antioxidant 10 mM or none, 40° C., ~24 hours): ~4.0 (estimated) % AUC
reduction in serum iron (in words) (serum iron): significant drop in serum iron level
In vitro plasma stability (Ratio of compound/benfluorex (std) degradation) ([4]; rat plasma, 37° C.): 0.41
half-life ([4]; rat plasma, 37° C., read-out: In vitro plasma stability (T ½)): 23 min
significant degradation peaks observed by HPLC [7]: a single major peak
degradation after 18 hours at 40° C. (in words) ([7]; 18 hours, 40° C.): almost completely degraded
% Purity of the Compound, 6 Hours 25° C. ([7]; sodium acetate buffer pH 6, 6 hours, 25° C.): 58.9%
% Purity of the Compound, 6 Hours 40° C. ([7]; sodium acetate buffer pH 6, 6 hours, 40° C.): 11.9%
Change in Main Peak % Area After 18 H Incubation, 40° C. ([7]; sodium acetate buffer pH 6, 18 h, 40° C.): −95-100%
% Purity of the Compound, 18 Hours 40° C. ([7]; sodium acetate buffer pH 6, 18 hours, 40° C.): <5%
% Purity of the Compound, Initial ([7]; sodium acetate buffer pH 6, initial): 96.9%
